Assay results from patent publication US12514249B2, “Oxaloacetate and related compounds as herbicidal agents” (Verdesian Life Sciences U.S., LLC, priority 2020, dated 2026).

System: plants
Assay: general screening of the herbicidal effect
Format: in vivo
Settings: 10% w/w; compared with Roundup RTU and Bayer Advanced (10% and 100% Label Rate) and untreated control; FIG. 1
Protocol: A general screening of the herbicidal effect of the following compounds was carried out: Bayer Advanced® (100% Label Rate), Bayer Advanced® (10% Lable Rate), UTC (=untreated control), Diethyl Oxalacetate (10% w/w), Roundup® RTU (RTU=ready to use) (10% Label Rate) and Roundup® RTU (100% Label Rate).

CCOC(=O)/C=C(\O)C(=O)OCC [Diethyl Oxalacetate]
herbicidal activity: comparable to well-known herbicide products such as Roundup® and Bayer Advanced®
